Details: Fluid (supercritical or subcritical phases), Brillouin light scattering

CC(C)CC(C)(C)C [2,2,4-trimethylpentane]
Details	speed of sound [m/s]
543.74 K, 6000 kPa	314.4
544.07 K, 10000 kPa	409.3
544.08 K, 12000 kPa	448.4
547.77 K, 3000 kPa	135.2
548.38 K, 4000 kPa	216.1
548.79 K, 5000 kPa	262.4
548.93 K, 12000 kPa	439.8
548.94 K, 6000 kPa	301.9
549.02 K, 10000 kPa	399.6
552.48 K, 3000 kPa	103.8
553.35 K, 4000 kPa	194.1
553.8 K, 5000 kPa	247.6
553.96 K, 6000 kPa	286.4
554.24 K, 12000 kPa	430.8
554.27 K, 10000 kPa	392.6
558.01 K, 3000 kPa	97.9
558.52 K, 10000 kPa	386.7
558.54 K, 12000 kPa	426
559.12 K, 6000 kPa	272.8
559.16 K, 5000 kPa	232.4
559.18 K, 4000 kPa	172.1
563.28 K, 4000 kPa	154.4
564.27 K, 5000 kPa	214.5
564.68 K, 12000 kPa	415.3
564.81 K, 10000 kPa	374.5
564.85 K, 6000 kPa	257.3
567.24 K, 3000 kPa	109.9
568.08 K, 4000 kPa	137.3
569.24 K, 5000 kPa	201.2
569.81 K, 12000 kPa	404.7
570.06 K, 6000 kPa	244.3
570.54 K, 10000 kPa	362.4
570.76 K, 3000 kPa	112.7
573.32 K, 4000 kPa	122.1
574.23 K, 5000 kPa	187
574.7 K, 6000 kPa	233
574.8 K, 12000 kPa	398.5
575.07 K, 10000 kPa	354
576.9 K, 3000 kPa	117.3
578.09 K, 4000 kPa	114.9
579 K, 5000 kPa	173.2
579.62 K, 6000 kPa	222.1
580.26 K, 12000 kPa	388.5
580.32 K, 10000 kPa	343.6
582.97 K, 4000 kPa	114.7
583.34 K, 3000 kPa	121.9
584.13 K, 5000 kPa	161.6
584.82 K, 6000 kPa	208.9
585.19 K, 12000 kPa	379.7
585.35 K, 10000 kPa	337.5
586.96 K, 3000 kPa	125
587.1 K, 4000 kPa	116
588.18 K, 5000 kPa	151.1
588.98 K, 6000 kPa	199.3
589.39 K, 12000 kPa	374.8
589.65 K, 10000 kPa	331.2
592.49 K, 4000 kPa	117.9
592.79 K, 3000 kPa	130.8
593.39 K, 5000 kPa	140.6
594.09 K, 6000 kPa	191.7
594.93 K, 12000 kPa	363.8
595.15 K, 10000 kPa	318.7
597.57 K, 4000 kPa	119.2
597.98 K, 3000 kPa	136.1
598.54 K, 5000 kPa	135.1
599.18 K, 6000 kPa	184.6
600.35 K, 10000 kPa	311.6
600.58 K, 12000 kPa	356.1
602.34 K, 4000 kPa	121.2
602.56 K, 3000 kPa	141.1
603.22 K, 5000 kPa	132.5
604.02 K, 6000 kPa	175.1
604.68 K, 12000 kPa	350.2
605.01 K, 10000 kPa	304.3
607.09 K, 4000 kPa	124.3
607.67 K, 5000 kPa	131
607.97 K, 3000 kPa	145.8
608.43 K, 6000 kPa	167.7
609.5 K, 12000 kPa	342.6
609.62 K, 10000 kPa	295.9
612.44 K, 4000 kPa	129.9
612.74 K, 5000 kPa	131.9
613.31 K, 3000 kPa	150.4
613.49 K, 6000 kPa	164.3
614.69 K, 10000 kPa	286.8
614.9 K, 12000 kPa	336.6
617.81 K, 4000 kPa	134.8
618.08 K, 5000 kPa	135
618.6 K, 6000 kPa	159.9
618.84 K, 3000 kPa	154.9
619.6 K, 12000 kPa	329.3
619.8 K, 10000 kPa	281.3
622.75 K, 4000 kPa	139
622.82 K, 5000 kPa	137.2
623.43 K, 6000 kPa	156.1
623.75 K, 3000 kPa	159.5
624.61 K, 12000 kPa	321.5
624.7 K, 10000 kPa	276.4
627.69 K, 5000 kPa	141.2
628.07 K, 4000 kPa	145.5
628.11 K, 6000 kPa	153.4
629.13 K, 10000 kPa	269.4
629.2 K, 12000 kPa	316.9
629.42 K, 3000 kPa	164
631.25 K, 5000 kPa	143.4
631.51 K, 6000 kPa	156
632.19 K, 4000 kPa	148.1
633.71 K, 3000 kPa	166.1
